Assay results: article PMC7600264, “Quasi-Irreversible Inhibition of CYP2D6 by Berberine” (Pharmaceutics, 2020)
Where two headings read alike, the source gives them in different places.

Assays:
CYP2D6 [1] = molecular target: T1, CYP2D6 (Homo sapiens, UniProt P10635); assay: in vitro; details: pH 7.4
Description: (§1) Pre-incubation was performed in pooled HLM (0.2 mg/mL) added with BBR, THB, TFD, or DMB, or rhCYP2D6 (10 pmol/mL) added with BBR, with or without NADPH (1 mM) in phosphate buffer (0.1 M; pH 7.4) for 30 min. Then, the CYP2D6 substrate (5 µM of dextromethorphan) and NADPH (1 mM) were added to the mixture and incubated for another 10 min. All incubations were carried out at 37 °C in a shaking water bath (100 rpm) using eight-well tube strips placed in an 8 × 12 rack, where the final volume of each reaction mixture was 200 µL. […] The enzyme reactions were quenched by adding an aliquot (200 µL) of ice-cold ACN containing CBZ (100 nM) as an IS. The samples were centrifuged, and the concentration of CYP2D6 metabolite (i.e., dextrorphan, produced by O-demethylation of dextromethorphan) in supernatants were analyzed using the LC-MS/MS method described in Section 2.2.

[2] = molecular target: recombinant human CYP2D6 (rhCYP2D6) (Homo sapiens, UniProt P10635); assay: Metabolism-dependent CYP2D6 inhibition assay (IC50 shift) using rhCYP2D6
Description: as §1

CYP2D6 [3] = molecular target: T1, CYP2D6; assay: Kinetic parameters for MDI of CYP2D6 in pooled HLM
Description: (§2) BBR (0–16 μM) was incubated with pooled HLM (0.2 mg/mL), NADPH (1 mM), and dextromethorphan (5 µM) in phosphate buffer (0.1 M; pH 7.4) for various incubation time periods (0–30 min). The apparent inactivation rate constants (kobs) at various BBR concentrations were estimated by fitting first-order kinetics to the relative enzyme activity vs. incubation time profiles. The rate of enzyme inactivation (kinact) and the inhibition constant (KI) were determined by fitting the following Equation (1) to the kobs values at various inhibitor concentrations Equation (1) [31]:(1) 1/kobs=KI/kinact×1/I+1/kinact

[4] = parameters: method as in PMID 19589224, PMID 12562448, PMID 27283523; details: clinical PK studies; single administration of BBR; highly variable; cited from earlier work
CYP2D6 [5] = molecular target: T1, CYP2D6; details: microsomes
Description: The pre-incubation mixtures consisting of potassium phosphate buffer (0.1 M; pH 7.4), HLM (1 mg/mL), NADPH (1 mM), and inhibitor (total volumes of 180 µL per well) were incubated at 37 °C for 30 min. To verify the reversibility of quasi-irreversible inhibition, potassium ferricyanide (2 mM) was co-incubated with the mixture for 10 min at 37 °C, from which microsomes were re-isolated by ultracentrifugation at 100,000 g for 60 min at 4 °C. The resulting microsomal pellet was washed twice with potassium phosphate buffer (0.1 M; pH 7.4). The obtained microsomes (adjusted to 0.2 mg/mL) were incubated with CYP substrates (25 µM of dextromethorphan for CYP2D6 and 25 µM of MDZ for CYP3A4) and NADPH (1 mM) in potassium phosphate buffer (0.1 M; pH 7.4) for 5 min to measure the CYP activity. The reactions were terminated by the addition of ACN (200 µL) containing CBZ (100 nM).

CYP2D6 [6] = molecular target: T1, CYP2D6; details: microsomes; remark: listed apart in the source
Description: as §2

[7] = test system: microsomal metabolism of nebivolol; assay: BBR-nebivolol interaction in pooled HLM; assay type: in vitro ADME, human; details: nebivolol 1 µM; pooled HLM 1 mg/mL; BBR 0, 1, 3, 10 µM; 60 min
Description: The HDI between BBR and nebivolol was assessed using pooled HLM, where nebivolol (1 μM) was incubated with HLM (1 mg/mL) and NADPH-generating system (see Section 2.6) in phosphate buffer (0.1 M; pH 7.4) with BBR at various concentrations (0, 1, 3, and 10 μM). The mixture (total volume of 200 µL) was incubated at 37 °C for 60 min in a shaking water bath (100 rpm), following a 5 min of pre-incubation at 37 °C. […] The mass transitions of nebivolol and CBZ were m/z 406 to 151 and m/z 237 to 194, respectively.

[8] = assay type: in vitro ADME, human; details: precursor 1 µM in pooled HLM with NADPH-generating system, mean ± SD
Description: Table 3. Putative M1 metabolite produced in pooled HLM incubated with thalifendine or
Precursor molecules Incubation time (min)a M1 signal at m/z 310 (103 × cps)b
Demethyleneberberine 0 107 ± 3
a Thalifendine or demethyleneberberine (1 μM) was incubated with pooled HLM in the presence of
NADPH-generating system; b Each value represents the mean ± SD for three separate samples. […]

T1 sequence (P10635 whole entry): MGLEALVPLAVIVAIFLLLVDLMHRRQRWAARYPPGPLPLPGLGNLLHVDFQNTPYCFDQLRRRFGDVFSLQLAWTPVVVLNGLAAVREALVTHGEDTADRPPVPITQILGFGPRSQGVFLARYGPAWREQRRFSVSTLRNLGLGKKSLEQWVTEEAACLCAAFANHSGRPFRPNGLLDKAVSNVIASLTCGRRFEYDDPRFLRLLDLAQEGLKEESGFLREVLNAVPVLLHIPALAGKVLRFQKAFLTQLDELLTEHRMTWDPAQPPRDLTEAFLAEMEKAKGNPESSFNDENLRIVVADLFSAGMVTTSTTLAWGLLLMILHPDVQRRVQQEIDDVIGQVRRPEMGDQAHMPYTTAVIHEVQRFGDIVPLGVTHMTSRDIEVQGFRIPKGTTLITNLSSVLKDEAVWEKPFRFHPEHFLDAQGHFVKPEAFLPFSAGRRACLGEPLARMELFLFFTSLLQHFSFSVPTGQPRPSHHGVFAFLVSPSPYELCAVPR
recombinant human CYP2D6 (rhCYP2D6), sequence (P10635 whole entry): as above

SMILES | IC50 shift at 10 min (CYP2D6 [1]) | IC50 ([2]; IC50 against rhCYP2D6, pre-incubation with NADPH, 30 min pre-incubation with NADPH) [µM] | IC50 ([2]; IC50 against rhCYP2D6, pre-incubation without NADPH, 30 min pre-incubation in the absence of NADPH) [µM] | Ki (CYP2D6 [3]) [µM] | kinact (CYP2D6 [3]; human, pooled human liver microsomes, pH 7.4, probe dextromethorphan (5 µM)) [s⁻¹] | Maximum plasma concentration [4] | Mode of CYP2D6 inhibition (CYP2D6 [5]) | kinact/KI against CYP2D6 (CYP2D6 [6]) [M⁻¹ s⁻¹] | Effect on microsomal clearance of nebivolol [7] | M1 signal at m/z 310 ([8]; incubation time 0 min) | M1 signal at m/z 310 ([8]; incubation time 30 min)
COc1ccc2cc3[n+](cc2c1OC)CCc1cc2c(cc1-3)OCO2 [BBR, berberine] | ~7.5 | 1.73 | 5.31 | 4.29 | 0.000417 | less than 1 nM to more than 1 µM | quasi-irreversible | 97.2 | significantly inhibited |  | 
COc1ccc2cc3[n+](cc2c1OC)CCc1cc(O)c(O)cc1-3 [DMB, demethyleneberberine] |  |  |  |  |  |  |  |  |  | 107 ± 3 103 × cps | 432 ± 27 103 × cps
